Data taken from ChEMBL document CHEMBL1201862, “PubChem BioAssay data set” (2004).
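Cells were grown in 96-well plates and exposed to each compound for 48 hours at five concentrations; endpoints were interpolated linearly between bracketing concentrations, or set to the highest concentration if not reached. At the GI50, growth is halved.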 The source made the active and inactive calls. Rule as the data show it: active = GI50 up to about 1.1 µM and inactive = higher.

What was measured:
Assay in all cases: NCI tumour cell line growth inhibition, 48 h
[1] = test system: EKVX
[2] = test system: K562
[3] = test system: OVCAR-3
[4] = test system: SK-MEL-2
[5] = test system: HOP-62
[6] = test system: BT-549
[7] = test system: RPMI-8226
[8] = test system: ACHN
[9] = test system: OVCAR-4
[10] = test system: COLO 205
[11] = test system: 786-0
[12] = test system: SF-539
[13] = test system: NCI-H460
[14] = test system: MDA-MB-435
[15] = test system: SF-268
[16] = test system: UO-31
[17] = test system: SW-620
[18] = test system: NCI-H226
[19] = test system: NCI-H23
[20] = test system: Malme-3M
[21] = test system: M14
[22] = test system: KM12
[23] = test system: SF-295
[24] = test system: HCC 2998
[25] = test system: MDA-N
[26] = test system: UACC-257
[27] = test system: HT-29
[28] = test system: SN12C
[29] = test system: CCRF-CEM
[30] = test system: SNB-19
[31] = test system: A549
[32] = test system: SNB-75
[33] = test system: SK-MEL-28
[34] = test system: OVCAR-8
[35] = test system: SK-OV-3
[36] = test system: T47D
[37] = test system: CAKI-1
[38] = test system: NCI/ADR-RES
[39] = test system: OVCAR-5
[40] = test system: PC-3
[41] = test system: MCF7
[42] = test system: Hs-578T
[43] = test system: HCT-15
[44] = test system: HCT-116
[45] = test system: MOLT-4
[46] = test system: MDA-MB-231
[47] = test system: UACC-62
[48] = test system: DU-145
[49] = test system: SR
[50] = test system: SK-MEL-5
[51] = test system: TK-10
[52] = test system: NCI-H522
[53] = test system: IGROV-1
[54] = test system: U-251
[55] = test system: LOX IMVI
[56] = test system: HOP-92
[57] = test system: A498

For O=[N+]([O-])/C(C(Cl)=C(Cl)Cl)=C(/Nc1cccc2cccnc12)n1nnc2ccccc21, the GI50 [1] was 24.4 µM (inactive), the GI50 [2] was 6.41 µM (inactive) and the GI50 [3] was 8.18 µM (inactive). For the same compound, the GI50 [4] was 15.3 µM (inactive), the GI50 [5] was 19.2 µM (inactive) and the GI50 [6] was 14.2 µM (inactive). The GI50 [7] was 24.5 µM (inactive), the GI50 [8] was 19.7 µM (inactive) and the GI50 [9] was 17.2 µM (inactive). For the same compound, the GI50 [10] was 17.3 µM (inactive), the GI50 [11] was 14.3 µM (inactive) and the GI50 [12] was 13.4 µM (inactive). For the same compound, the GI50 [13] was 31.3 µM (inactive), the GI50 [14] was 15.9 µM (inactive) and the GI50 [15] was 16.5 µM (inactive). For the same compound, the GI50 [16] was 15.8 µM (inactive), the GI50 [17] was 15.8 µM (inactive) and the GI50 [18] was 23.2 µM (inactive). The GI50 [19] was 15.5 µM (inactive), the GI50 [20] was 6.85 µM (inactive) and the GI50 [21] was 12.2 µM (inactive). The GI50 [22] was 16 µM (inactive), the GI50 [23] was 17.9 µM (inactive) and the GI50 [24] was 44.1 µM (inactive). The GI50 [25] was 13.9 µM (inactive), the GI50 [26] was 30.3 µM (inactive) and the GI50 [27] was 17.7 µM (inactive). The GI50 [28] was 16.3 µM (inactive), the GI50 [29] was 2.88 µM (inactive) and the GI50 [30] was 16.9 µM (inactive). The GI50 [31] was 27.3 µM (inactive), the GI50 [32] was 19.4 µM (inactive) and the GI50 [33] was 18.4 µM (inactive). For the same compound, the GI50 [34] was 13.8 µM (inactive), the GI50 [35] was 15.9 µM (inactive) and the GI50 [36] was 19 µM (inactive). The GI50 [37] was 13.5 µM (inactive), the GI50 [38] was 21.8 µM (inactive) and the GI50 [39] was 21.6 µM (inactive). The GI50 [40] was 19.2 µM (inactive), the GI50 [41] was 19.6 µM (inactive) and the GI50 [42] was 11.9 µM (inactive). For the same compound, the GI50 [43] was 10.8 µM, the GI50 [44] was 19.3 µM (inactive) and the GI50 [45] was 3.57 µM (inactive).

Clc1sc(Cl)c2c1[C@@H](Cl)C[C@@H]2Cl was tested, and the GI50 [1] was 62.5 µM (inactive), the GI50 [2] was 48.5 µM (inactive) and the GI50 [3] was > 100 µM (inactive). The GI50 [4] was > 100 µM (inactive), the GI50 [5] was > 100 µM (inactive) and the GI50 [6] was > 100 µM (inactive). For the same compound, the GI50 [46] was > 100 µM (inactive), the GI50 [47] was 13.4 µM (inactive) and the GI50 [8] was > 100 µM (inactive). For the same compound, the GI50 [9] was 74.3 µM (inactive), the GI50 [10] was > 100 µM (inactive) and the GI50 [11] was > 100 µM (inactive). For the same compound, the GI50 [12] was > 100 µM (inactive), the GI50 [13] was 92.9 µM (inactive) and the GI50 [14] was 92 µM (inactive). The GI50 [15] was 62.1 µM (inactive), the GI50 [16] was 76 µM (inactive) and the GI50 [17] was 57.1 µM (inactive). For the same compound, the GI50 [48] was > 100 µM (inactive), the GI50 [18] was 57.3 µM (inactive) and the GI50 [19] was 53.8 µM (inactive). The GI50 [20] was 29.7 µM (inactive), the GI50 [49] was 33.6 µM (inactive) and the GI50 [50] was > 100 µM (inactive). The GI50 [21] was > 100 µM (inactive), the GI50 [22] was > 100 µM (inactive) and the GI50 [51] was > 100 µM (inactive). For the same compound, the GI50 [52] was 18.9 µM (inactive), the GI50 [23] was > 100 µM (inactive) and the GI50 [24] was 63.4 µM (inactive). For the same compound, the GI50 [53] was 48.1 µM (inactive), the GI50 [25] was > 100 µM (inactive) and the GI50 [26] was > 100 µM (inactive). The GI50 [27] was > 100 µM (inactive), the GI50 [28] was > 100 µM (inactive) and the GI50 [29] was 23.7 µM (inactive). The GI50 [31] was 61.9 µM (inactive), the GI50 [32] was 33.3 µM (inactive) and the GI50 [33] was 84.9 µM (inactive). The GI50 [34] was > 100 µM (inactive), the GI50 [35] was > 100 µM (inactive) and the GI50 [36] was 45.4 µM (inactive). The GI50 [37] was 94.6 µM (inactive), the GI50 [38] was > 100 µM (inactive) and the GI50 [54] was > 100 µM (inactive). For the same compound, the GI50 [39] was > 100 µM (inactive), the GI50 [41] was 52.4 µM (inactive) and the GI50 [42] was 38.1 µM (inactive). For the same compound, the GI50 [43] was greater than 100 µM, the GI50 [55] was 49.4 µM (inactive) and the GI50 [56] was 37.4 µM (inactive). The GI50 [44] was 53.5 µM (inactive), the GI50 [57] was > 100 µM (inactive) and the GI50 [45] was 46.6 µM (inactive).
